Two compounds from BindingDB's records for PubMed 33129590 (Key Laboratory of Technology of Drug Preparation (Zhengzhou …, 2021) can be followed below.

Experiment [1] addresses Prostaglandin G/H synthase 2 (Homo sapiens) (UniProt P35354). Description: Inhibition of COX-2 (unknown origin).
Experiment [2] deals with Prostaglandin G/H synthase 1 (Homo sapiens) (UniProt P23219). Nature of the experiment: Inhibition of COX-1 (unknown origin).
For experiment [3], the target named is Poly [ADP-ribose] polymerase 1 (Homo sapiens, UniProt P09874). Description: Displacement of [125I]KX1 from PARP1 in human OVCAR-8 cells incubated for 1 hr by wizard gamma counter analysis. For orientation: In a radioligand displacement assay an active substance lowers the binding of a labelled ligand.
Chain of Poly [ADP-ribose] polymerase 1 (P09874 whole entry): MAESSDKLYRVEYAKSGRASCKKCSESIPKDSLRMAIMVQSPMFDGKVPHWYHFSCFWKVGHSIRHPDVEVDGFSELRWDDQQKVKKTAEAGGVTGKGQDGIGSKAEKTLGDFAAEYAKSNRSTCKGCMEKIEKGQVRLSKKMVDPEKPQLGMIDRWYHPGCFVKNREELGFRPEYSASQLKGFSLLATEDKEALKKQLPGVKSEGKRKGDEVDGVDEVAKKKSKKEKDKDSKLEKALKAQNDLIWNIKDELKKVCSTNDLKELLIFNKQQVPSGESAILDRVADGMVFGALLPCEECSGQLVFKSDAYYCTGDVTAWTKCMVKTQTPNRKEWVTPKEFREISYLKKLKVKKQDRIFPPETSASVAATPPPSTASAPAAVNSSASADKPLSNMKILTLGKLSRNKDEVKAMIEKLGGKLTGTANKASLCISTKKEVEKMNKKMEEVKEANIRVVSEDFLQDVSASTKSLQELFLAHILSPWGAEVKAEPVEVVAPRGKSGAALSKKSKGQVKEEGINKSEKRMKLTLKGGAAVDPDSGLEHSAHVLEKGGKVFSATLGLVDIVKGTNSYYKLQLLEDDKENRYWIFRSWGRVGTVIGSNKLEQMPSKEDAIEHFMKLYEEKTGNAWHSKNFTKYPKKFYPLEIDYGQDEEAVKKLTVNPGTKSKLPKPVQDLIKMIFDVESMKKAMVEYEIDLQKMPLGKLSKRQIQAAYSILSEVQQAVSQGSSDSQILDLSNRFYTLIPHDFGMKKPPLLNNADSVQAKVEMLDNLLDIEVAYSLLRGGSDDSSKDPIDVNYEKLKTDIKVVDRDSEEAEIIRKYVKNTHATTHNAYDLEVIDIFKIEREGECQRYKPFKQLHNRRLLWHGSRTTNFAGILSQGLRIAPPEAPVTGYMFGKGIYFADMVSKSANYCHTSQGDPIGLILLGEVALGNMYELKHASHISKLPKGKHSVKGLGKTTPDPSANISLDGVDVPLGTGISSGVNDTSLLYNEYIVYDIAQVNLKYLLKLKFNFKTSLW

Chain of Prostaglandin G/H synthase 2 (Homo sapiens) (P35354 whole entry, looked up): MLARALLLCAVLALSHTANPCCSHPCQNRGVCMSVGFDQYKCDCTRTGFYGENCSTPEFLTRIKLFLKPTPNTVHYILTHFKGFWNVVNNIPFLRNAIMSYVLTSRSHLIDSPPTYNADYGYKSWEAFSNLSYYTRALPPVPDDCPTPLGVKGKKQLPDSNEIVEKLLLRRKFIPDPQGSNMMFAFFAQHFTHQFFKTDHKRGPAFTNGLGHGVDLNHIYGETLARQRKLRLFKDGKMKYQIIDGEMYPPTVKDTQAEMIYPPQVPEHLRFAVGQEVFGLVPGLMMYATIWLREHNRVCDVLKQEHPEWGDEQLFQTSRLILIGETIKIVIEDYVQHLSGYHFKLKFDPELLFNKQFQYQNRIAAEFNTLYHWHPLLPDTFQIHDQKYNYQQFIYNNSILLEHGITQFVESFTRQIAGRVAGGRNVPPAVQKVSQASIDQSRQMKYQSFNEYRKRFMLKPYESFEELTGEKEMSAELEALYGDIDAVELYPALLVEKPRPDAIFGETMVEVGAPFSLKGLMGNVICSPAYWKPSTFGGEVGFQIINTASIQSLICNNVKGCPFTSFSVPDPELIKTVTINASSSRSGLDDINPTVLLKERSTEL

With `COc1ccc(-c2nc(N3N=C(c4ccc(F)cc4)CCC3=O)n(C)c(=O)c2C#N)cc1`, the values for the IC50 in experiment [1] and in experiment [2] were 1.4 µM and 115 µM, respectively.

As to `COC1CC(NC(=O)c2cc(Cc3n[nH]c(=O)c4ccccc34)ccc2F)C1` (stereo not drawn), in experiment [3], the IC50 amounted to 0.044 µM.

As a reminder, the IC50 is the concentration at which inhibition is half-maximal.
